{
  "source": "paper PMC3048538",
  "about": "“Differences in the mannose oligomer specificities of the closely related lectins from Galanthus nivalis and Zea mays strongly determine their eventual anti-HIV activity” (Retrovirology, 2011)",
  "key": {"immobilized GNA": {"molecular_target": "immobilized GNA (Galanthus nivalis, UniProt P30617)", "sequence (P30617 24-128)": "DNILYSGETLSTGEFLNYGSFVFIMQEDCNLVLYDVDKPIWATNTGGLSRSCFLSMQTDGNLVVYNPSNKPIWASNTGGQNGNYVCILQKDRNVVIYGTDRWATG", "assay": "SPR steady-state affinity of oligosaccharides with immobilized GNA", "settings": "apparent, N.D. = not detectable, no binding curves", "procedure": "(§1) The experimental data were fit using the steady-state affinity model (Biacore T100 Evaluation software 2.0.2) to determine the apparent KD-values.\n(§2) The apparent KD was calculated by steady-state affinity analysis (Table 6)."}, "immobilized GNAmaize": {"molecular_target": "immobilized GNAmaize", "assay": "SPR steady-state affinity of oligosaccharides with immobilized GNAmaize", "design": "species or system Zea mays", "settings": "apparent, N.D. = not detectable, binding detected = KD could not be determined", "procedure": "as §1, §2"}, "HIV-1(IIIB)": {"tested_on": "HIV-1(IIIB)", "assay": "Antiretrovirus assay, HIV-1(IIIB)-induced cytopathicity (syncytium formation) in CEM cell cultures", "format": "cell-based", "settings": "inhibit virus-induced cytopathicity in CEM cell cultures by 50%", "procedure": "(§3) CEM cells (5 × 10^5 cells per ml) were suspended in fresh culture medium and infected with HIV-1 and HIV-2 at 100 times the CCID50 (50% cell culture infective doses) per ml of cell suspension, of which 100 μl was mixed with 100 μl of the appropriate dilutions of the test compounds, and further incubated at 37°C. After 4 to 5 days, syncytia formation was recorded microscopically in the cell cultures. The 50% effective concentration (EC50) corresponds to the compound concentration required to prevent syncytium formation by 50% in the virus-infected CEM cell cultures."}, "HIV-2(ROD)": {"tested_on": "HIV-2(ROD)", "assay": "Antiretrovirus assay, HIV-2(ROD)-induced cytopathicity (syncytium formation) in CEM cell cultures", "format": "cell-based", "settings": "inhibit virus-induced cytopathicity in CEM cell cultures by 50%", "procedure": "as §3"}, "[1]": {"tested_on": "syncytia formation between HuT-78/HIV-1 and Sup-T1 cells", "assay": "Co-cultivation assay between Sup-T1 and persistently HIV-1-infected HuT-78 cells (syncytia formation)", "format": "cell-based, Human", "settings": "inhibit syncytia formation between HuT-78/HIV-1 and Sup-T1 cells by 50%", "procedure": "Persistently HIV-1(IIIB)-infected HuT-78 cells (designated HuT-78/HIV-1) were washed to remove cell-free virus from the culture medium, and 5 × 10^4 cells (50 μl) were transferred to 96-well microtiter plates. Next, a similar amount of Sup-T1 cells (50 μl) and appropriate concentrations of test compound (100 μl), were added to each well."}, "[2]": {"tested_on": "HIV-1 UG273 (clade A, R5)", "assay": "p24 production in HIV-infected PBMC, clinical isolate UG273", "format": "cell-based", "settings": "inhibit p24 production of HIV-infected PBMC", "procedure": "(§4) Buffy coat preparations from healthy donors were obtained from the Blood Bank in Leuven. Peripheral blood mononuclear cells (PBMC) were isolated by density gradient centrifugation over Lymphoprep (density = 1.077 g/ml; Nycomed, Oslo, Norway). The PBMC were transferred to RPMI 1640 medium supplemented with 10% fetal calf serum (BioWhittaker Europe) and 2 mM L-glutamine and then stimulated for 3 days with phytohemagglutinin (PHA; Murex Biotech Limited, Dartford, United Kingdom) at 2 μg/ml. […] Supernatant was collected at days 8 to 10, and HIV-1 core antigen in the culture supernatant was analyzed by the p24 core antigen enzyme-linked immunosorbent assay (ELISA; DuPont-Merck Pharmaceutical Co., Wilmington, Del.)."}, "HIV-1(BaL) (Clade B)": {"tested_on": "HIV-1(BaL) (Clade B)", "assay": "p24 production in HIV-infected PBMC, BaL", "format": "cell-based", "settings": "inhibit p24 production of HIV-infected PBMC", "procedure": "as §4"}, "[3]": {"tested_on": "HIV-1 DJ259 (clade C, R5)", "assay": "p24 production in HIV-infected PBMC, clinical isolate DJ259", "format": "cell-based", "settings": "inhibit p24 production of HIV-infected PBMC", "procedure": "as §4"}, "[4]": {"tested_on": "HIV-1 ID12 (clade A/E, R5)", "assay": "p24 production in HIV-infected PBMC, clinical isolate ID12", "format": "cell-based", "settings": "inhibit p24 production of HIV-infected PBMC", "procedure": "as §4"}, "[5]": {"tested_on": "DC-SIGN-mediated capture of HIV-1(IIIB) by Raji/DC-SIGN cells", "assay": "Capture of HIV-1(IIIB) by Raji/DC-SIGN cells (p24 Ag ELISA)", "format": "cell-based", "settings": "HIV-1(IIIB) capture by Raji/DC-SIGN cells", "procedure": "(§5) The experiment was performed as described previously. Briefly, B-lymphocyte DC-SIGN-expressing (Raji/DC-SIGN) cells were suspended in cell culture medium at 2 × 10^6 cells/ml. 100 μl of HIV-1(IIIB) (~250,000 pg p24) were added in the presence of 400 μl of serial dilutions of the test compounds. After 60 minutes of incubation, the cells were carefully washed 3 times to remove unbound virions and resuspended in 1 ml of cell culture medium. The captured HIV-1(IIIB) was quantified by a p24 Ag ELISA. From the Raji/DC-SIGN cell suspension, 200 μl were also added to the wells of a 48-well microtiter plate in the presence of 800 μl uninfected C8166 cells (2.5 × 10^5 cells/ml). These cocultures were further incubated at 37°C, and syncytia formation was evaluated microscopically after ~ 18 to 42 h, and viral p24 Ag determination in the culture supernatants was performed.\n(§6) One hour later, free virus particles and the test compounds were carefully removed from the cell cultures by several washing steps."}, "[6]": {"tested_on": "transmission of DC-SIGN-captured HIV-1(IIIB) to CD4+ T-lymphocyte C8166 cells", "assay": "Transmission of DC-SIGN-captured HIV-1(IIIB) to C8166 cells (syncytia formation)", "format": "cell-based", "settings": "transmission of DC-SIGN-captured virions to CD4+ T cells (C8166)", "procedure": "as §5, §6"}},
  "note": "“Also recorded” adds a separate entry of the source.",
  "data": [
    {"compound": "OC[C@H]1O[C@H](O[C@@H]2[C@@H](O[C@@H]3C(O)O[C@H](CO)[C@@H](O)[C@@H]3O)O[C@H](CO)[C@@H](O)[C@@H]2O)[C@@H](O)[C@@H](O)[C@@H]1O", "note": "(stereo partly drawn) [(α1,2-man)3]", "values": [
      {"measurement": "Kd", "setting": "immobilized GNA", "value": "> 1000", "unit": "µM"},
      {"measurement": "KD, immobilized GNAmaize", "setting": "immobilized GNAmaize", "value": "did not bind"}
    ]},
    {"compound": "OC[C@H]1O[C@H](O[C@H]2[C@H](O)[C@@H](CO)OC(O)[C@H]2O)[C@@H](O)[C@@H](O)[C@@H]1O", "note": "(stereo partly drawn) [(α1,3-man)2]", "values": [
      {"measurement": "KD, immobilized GNA", "setting": "immobilized GNA", "value": "preferentially bind"},
      {"measurement": "Kd", "setting": "immobilized GNA", "value": "> 2000", "unit": "µM"},
      {"measurement": "KD, immobilized GNAmaize", "setting": "immobilized GNAmaize", "value": "did not bind"}
    ]},
    {"compound": "CC(=O)N[C@H]1[C@H](O[C@@H]2C(O)O[C@H](CO)[C@@H](O)[C@@H]2O)O[C@H](CO)[C@@H](O)[C@@H]1O", "note": "(some centres unmarked) [GlcNAcβ1,2Man, GlcNAcß1,2Man]", "values": [
      {"measurement": "KD, immobilized GNA", "setting": "immobilized GNA", "value": "didn't bind; also recorded: not to GNA"},
      {"measurement": "KD, immobilized GNAmaize", "setting": "immobilized GNAmaize", "value": "binding detected^b"},
      {"measurement": "KD, immobilized GNAmaize", "setting": "immobilized GNAmaize; listed as GlcNAcß1,2Man", "value": "able to measurably bind"}
    ]},
    {"compound": "CC(=O)N[C@H]1[C@H](O[C@H]2[C@H](O)[C@@H](NC(C)=O)C(O)O[C@@H]2CO)O[C@H](CO)[C@@H](O[C@@H]2O[C@H](CO[C@H]3O[C@H](CO)[C@@H](O)[C@H](O)[C@@H]3O[C@@H]3O[C@H](CO)[C@@H](O)[C@H](O)[C@H]3NC(C)=O)[C@@H](O)[C@H](O[C@H]3O[C@H](CO)[C@@H](O)[C@H](O)[C@@H]3O[C@@H]3O[C@H](CO)[C@@H](O)[C@H](O)[C@H]3NC(C)=O)[C@@H]2O)[C@@H]1O", "note": "(some centres unmarked) [GlcNAcβ1,2Manα1,3(GlcNAcβ1,2Manα1,6)Manβ1,4GlcNAcβ1,4GlcNAc]", "values": [
      {"measurement": "KD, immobilized GNA", "setting": "immobilized GNA", "value": "not to GNA"},
      {"measurement": "KD, immobilized GNAmaize", "setting": "immobilized GNAmaize", "value": "binding detected^b"},
      {"measurement": "KD, immobilized GNAmaize", "setting": "immobilized GNAmaize; listed as GlcNAcβ1,2Manα1,3(GlcNAcβ1,2Manα1,6) Manβ1,4GlcNAcβ1,4GlcNAc", "value": "able to bind"}
    ]},
    {"compound": "GNA: mannose-specific tetrameric plant lectin of 50 kDa from snowdrop (Galanthus nivalis) bulbs", "values": [
      {"measurement": "EC50", "setting": "HIV-1(IIIB)", "value": "0.007 ± 0.001", "unit": "µM"},
      {"measurement": "EC50", "setting": "HIV-2(ROD)", "value": "0.008 ± 0.001", "unit": "µM"},
      {"measurement": "EC50", "setting": "[1]", "value": "0.062 ± 0.064", "unit": "µM"},
      {"measurement": "EC50", "setting": "[2]", "value": 0.046, "unit": "µM"},
      {"measurement": "EC50", "setting": "HIV-1(BaL) (Clade B)", "value": 0.13, "unit": "µM"},
      {"measurement": "EC50", "setting": "[3]", "value": 0.84, "unit": "µM"},
      {"measurement": "EC50 Clade A/E, ID12", "setting": "[4]", "value": 0.38, "unit": "µM"},
      {"measurement": "EC50", "setting": "[5]", "value": "0.04 ± 0.01", "unit": "µM"},
      {"measurement": "EC50", "setting": "[6]", "value": "0.006 ± 0.005", "unit": "µM"}
    ]}
  ]
}
